Assays:
Type in all cases: cell-based
[1] = system: CNS: SF-268, SF-295, SF-539, SNB-19, SNB-75, U251; test: Determination of EC50 in cancer cells, CNS; details: CNS tumor cell lines; incubated at least 24 hours
Procedure: (§1) Cancer cells were incubated with 4-amino-5-oxo-8-(β-D-ribofuranosyl)pyrido[2,3-d]pyrimidine at various concentrations for a period of at least 24 hours and EC50 was determined. Table 1 gives in vitro activity of 4-amino-5-oxo-8-(β-D-ribofuranosyl)pyrido[2,3-d]pyrimidine in nM concentrations.

[2] = system: Breast: MCF 7, NCI/ADR-RES, MDA-MB-435, BT-549, T-47D; test: Determination of EC50 in cancer cells, breast; details: Breast tumor cell lines; incubated at least 24 hours
Procedure: as §1

[3] = system: Ovarian: IGROV1, OVCAR-3, OVCAR-4, OVCAR-5, SK-OV-3; test: Determination of EC50 in cancer cells, ovarian; details: Ovarian tumor cell lines; incubated at least 24 hours
Procedure: as §1

Pancreas: PaCa-2, PANC-1 = test: Determination of EC50 in cancer cells, pancreas; details: Pancreas tumor cell lines; incubated at least 24 hours
Procedure: as §1

RNA Polymerase III = RNA Polymerase III dependent RNA synthesis; details: FIG. 6
Procedure: (§2) To further investigate the influence of contemplated compounds (here again represented by 4-amino-5-oxo-8-(β-D-ribofuranosyl)pyrido[2,3-d]pyrimidine) on RNA synthesis dependent on RNA Polymerase I, II, and III, experiments were conducted.

[4] = system: Kidney: 786-0, A498, ACHN, CAKI-1, RXF 393, UO-31; test: Determination of EC50 in cancer cells, kidney; details: Kidney tumor cell lines; incubated at least 24 hours
Procedure: as §1

[5] = system: Melanoma: LOX IM VI, MALME-3M, M14, SK-MEL-2, SK-MEL-28, ACC-257, UACC-62; test: Determination of EC50 in cancer cells, melanoma; details: Melanoma cell lines; incubated at least 24 hours
Procedure: as §1

K562 cells = test: Inhibition of RNA synthesis, H^3-Uridine incorporation; details: various time periods and concentrations, FIG. 5
Text: RNA synthesis was monitored in K562 cells using H^3-Uridine incorporation following a general protocol as outlined below.

[6] = system: Liver: PLC/PRF5, Hep3B, Huh7; test: Determination of EC50 in cancer cells, liver; details: Liver tumor cell lines; incubated at least 24 hours
Procedure: as §1

RNA Polymerase II = RNA Polymerase II dependent RNA synthesis; details: FIG. 7
Procedure: as §2

NB4 cells (Leukemia) = test: Induction of apoptosis, histone-DNA ELISA; details: FIGS. 4A and 4B
Procedure: (§3) In order to determine how contemplated compounds interact with cancer cells, NB4 cells (Leukemia) and Prostate 81 (prostate cancer cells) cells were incubated with 4-amino-5-oxo-8-(β-D-ribofuranosyl)pyrido[2,3-d]pyrimidine, Ecyd, and Gemzar, and apoptosis was monitored by histone-DNA ELISA.

[7] = system: Prostate 81 (prostate cancer cells); test: Induction of apoptosis, histone-DNA ELISA; details: Prostate 81 cells, FIGS. 4A and 4B
Procedure: as §3

[8] = system: melanoma B16 and 140 cells, Leukemia cells (K562, M), and colon HT-29 cells; test: Anti-clonogenic activity in various cancer cells; details: FIG. 3; compared against Ecyd and Gemzar
Procedure: To determine the anti-clonogenic activity of contemplated compounds in various cancer cells experiments were conducted. […] Here again, 4-amino-5-oxo-8-(β-D-ribofuranosyl)pyrido[2,3-d]pyrimidine was used as a representative compound of contemplated compounds and compared against Ecyd and Gemzar.

RNA Polymerase I = RNA Polymerase I dependent RNA synthesis (28S and 18S rRNA processing); details: FIG. 6
Procedure: as §2

Prostate: PC-3, DU-145 = test: Determination of EC50 in cancer cells, prostate; details: Homo sapiens, Prostate tumor cell lines, incubated at least 24 hours
Procedure: as §1

[9] = system: Lung: NCI-H522, NCI-H460, NCI-H322M, NCI-H23, HOP-92, HOP-62, EKVX, A549; test: Determination of EC50 in cancer cells, lung; details: Lung tumor cell lines; incubated at least 24 hours
Procedure: as §1

[10] = system: Leukemia: SR, RPMI 8226, MOLT-4, K-562, HL-60, CCRF-CEM; test: Determination of EC50 in cancer cells, leukemia; details: Leukemia cell lines; incubated at least 24 hours
Procedure: as §1

[11] = system: Colon: SW-620, KM 12, HT29, HCT-15, CHCT-116, HCC-2998, COLO-205; test: Determination of EC50 in cancer cells, colon; details: Colon tumor cell lines; incubated at least 24 hours
Procedure: as §1

MEK = test: MEK-ERK phosphorylation, autoradiograph, NB4 leukemic cells; details: FIG. 8
Procedure: (§4) To investigate the possibility of activation of the MEK-ERK signal transduction pathway by contemplated compounds an experiment was conducted. […] Consequently, it is contemplated that the compounds according to the inventive subject matter may induce apoptosis through activation of MEK (which can be abolished by inhibitors of the MEK-ERK pathway).

Raf = test: as above; details: FIG. 8
Procedure: as §4

ERK = test: as above; details: FIG. 8
Procedure: as §4

- EC50 [1]: 125 nM
- EC50 [2]: 18 nM
- EC50 [3]: 21 nM
- EC50 (Pancreas: PaCa-2, PANC-1): 188 nM
- EC50 [4]: 44 nM
- EC50 [5]: 30 nM
- EC50 [6]: 288 nM
- EC50 (Prostate: PC-3, DU-145): 19 nM
- EC50 [9]: 68 nM
- EC50 [10]: 34 nM
- EC50 [11]: 16 nM
Compound: Nc1ncnc2c1c(=O)ccn2[C@@H]1O[C@H](CO)[C@@H](O)[C@H]1O [4-amino-5-oxo-8-(β-D-ribofuranosyl)pyrido[2,3-d]pyrimidine]
- inhibition of RNA Polymerase III (RNA Polymerase III): fail to significantly inhibit RNA Polymerase III
- inhibition of RNA synthesis (K562 cells): inhibition of RNA synthesis
- inhibition of RNA-Polymerase II dependent RNA synthesis (RNA Polymerase II): inhibit RNA-Polymerase II dependent RNA synthesis in a concentration dependent manner
- induction of apoptosis (NB4 cells (Leukemia)): induce apoptosis in a dose dependent manner
- induction of apoptosis [7]: induce apoptosis in a dose dependent manner
- anti-clonogenic activity [8]: significant anti-clonogenic activity
- inhibition of processing of 28S and 18S rRNA (RNA Polymerase I): may inhibit processing of 28S and 18S rRNA
- phosphorylation of MEK (MEK): enhance phosphorylation of MEK
- phosphorylation of Raf (Raf): do not enhance phosphorylation of Raf
- phosphorylation of ERK (ERK): phosphorylation of MEK and ERK

Source: US7081449B2, “Pyrido[2,3-d]pyrimidine and pyrimido[4,5-d]pyrimidine nucleosides” (Valeant Research & Development, priority 2000, dated 2006)
